± gives the expanded uncertainty stated by the source.
Experiment: activity coefficient (dimensionless); of the first substance listed, at infinite dilution; xn = mol fraction of the nth substance listed
Conditions: 101 kPa, Liquid, Chromatography, x1 = 0

Row | Structure (SMILES) | activity coefficient (323.15 K) | activity coefficient (333.15 K) | activity coefficient (343.15 K)
1 | CCC(C)CC [3-methylpentane] + CCCC[N+]1(C)CCCC1.O=S(=O)([N-]S(=O)(=O)C(F)(F)F)C(F)(F)F | 12.3 ± 0.84 | 11.9 ± 0.81 | 11 ± 0.75
2 | CCC(C)CC [3-methylpentane] + CCC[N+]1(C)CCCC1.O=S(=O)([N-]S(=O)(=O)C(F)(F)F)C(F)(F)F | 14.3 ± 0.98 | 13.5 ± 0.92 | 11.7 ± 0.8
3 | CC#N [acetonitrile] + CCCC[N+]1(C)CCCC1.O=S(=O)([N-]S(=O)(=O)C(F)(F)F)C(F)(F)F | 0.52 ± 0.04 | 0.51 ± 0.04 | 0.5 ± 0.04
4 | c1ccccc1 [benzene] + CCCC[N+]1(C)CCCC1.O=S(=O)([N-]S(=O)(=O)C(F)(F)F)C(F)(F)F | 0.92 ± 0.06 | 0.93 ± 0.06 | 0.94 ± 0.06
5 | c1ccccc1 [benzene] + CCC[N+]1(C)CCCC1.O=S(=O)([N-]S(=O)(=O)C(F)(F)F)C(F)(F)F | 0.99 ± 0.06 | 1.01 ± 0.06 | 1.03 ± 0.06
6 | CCCCO [butan-1-ol] + CCCC[N+]1(C)CCCC1.O=S(=O)([N-]S(=O)(=O)C(F)(F)F)C(F)(F)F | 2.59 ± 0.18 | 2.32 ± 0.16 | 2.08 ± 0.14
7 | CCCCO [butan-1-ol] + CCC[N+]1(C)CCCC1.O=S(=O)([N-]S(=O)(=O)C(F)(F)F)C(F)(F)F | 2.79 ± 0.19 | 2.35 ± 0.16 | 2.27 ± 0.15
8 | CCC(C)=O [butanone] + CCCC[N+]1(C)CCCC1.O=S(=O)([N-]S(=O)(=O)C(F)(F)F)C(F)(F)F | 0.54 ± 0.04 | 0.5 ± 0.04 | 0.46 ± 0.04
9 | CCC(C)=O [butanone] + CCC[N+]1(C)CCCC1.O=S(=O)([N-]S(=O)(=O)C(F)(F)F)C(F)(F)F | 0.57 ± 0.04 | 0.58 ± 0.04 | 0.64 ± 0.04
10 | C1CCCCCC1 [cycloheptane] + CCCC[N+]1(C)CCCC1.O=S(=O)([N-]S(=O)(=O)C(F)(F)F)C(F)(F)F | 23.9 ± 1.6 | 32 ± 2.2 | 41.7 ± 2.9
11 | C1CCCCCC1 [cycloheptane] + CCC[N+]1(C)CCCC1.O=S(=O)([N-]S(=O)(=O)C(F)(F)F)C(F)(F)F | 29.1 ± 2 | 43 ± 2.9 | 54.7 ± 3.8
12 | C1CCCCC1 [cyclohexane] + CCCC[N+]1(C)CCCC1.O=S(=O)([N-]S(=O)(=O)C(F)(F)F)C(F)(F)F | 8.74 ± 0.6 | 7.96 ± 0.54 | 7.59 ± 0.52
13 | C1CCCCC1 [cyclohexane] + CCC[N+]1(C)CCCC1.O=S(=O)([N-]S(=O)(=O)C(F)(F)F)C(F)(F)F | 10.2 ± 0.7 | 9.53 ± 0.65 | 8.53 ± 0.58
14 | CCCCCCCCCC [decane] + CCCC[N+]1(C)CCCC1.O=S(=O)([N-]S(=O)(=O)C(F)(F)F)C(F)(F)F | 54.3 ± 3.7 | 49 ± 3.4 | 44.2 ± 3
15 | CCCCCCCCCC [decane] + CCC[N+]1(C)CCCC1.O=S(=O)([N-]S(=O)(=O)C(F)(F)F)C(F)(F)F | 74.7 ± 5.1 | 65.7 ± 4.5 | 60 ± 4.1
16 | ClCCl [dichloromethane] + CCCC[N+]1(C)CCCC1.O=S(=O)([N-]S(=O)(=O)C(F)(F)F)C(F)(F)F | 0.66 ± 0.05 | 0.7 ± 0.05 | 0.73 ± 0.05
17 | ClCCl [dichloromethane] + CCC[N+]1(C)CCCC1.O=S(=O)([N-]S(=O)(=O)C(F)(F)F)C(F)(F)F | 0.66 ± 0.05 | 0.72 ± 0.05 | 0.78 ± 0.05
18 | CCOCC [diethyl ether] + CCCC[N+]1(C)CCCC1.O=S(=O)([N-]S(=O)(=O)C(F)(F)F)C(F)(F)F | 2.53 ± 0.17 | 2.54 ± 0.17 | 2.6 ± 0.18
19 | CCOCC [diethyl ether] + CCC[N+]1(C)CCCC1.O=S(=O)([N-]S(=O)(=O)C(F)(F)F)C(F)(F)F | 2.62 ± 0.18 | 2.7 ± 0.18 | 2.75 ± 0.19
20 | CC(C)OC(C)C [diisopropyl ether] + CCCC[N+]1(C)CCCC1.O=S(=O)([N-]S(=O)(=O)C(F)(F)F)C(F)(F)F | 5.19 ± 0.35 | 5.28 ± 0.36 | 5.4 ± 0.37
21 | CC(C)OC(C)C [diisopropyl ether] + CCC[N+]1(C)CCCC1.O=S(=O)([N-]S(=O)(=O)C(F)(F)F)C(F)(F)F | 5.88 ± 0.4 | 5.75 ± 0.39 | 5.53 ± 0.38
22 | CCCCCCCCCCCC [dodecane] + CCCC[N+]1(C)CCCC1.O=S(=O)([N-]S(=O)(=O)C(F)(F)F)C(F)(F)F | 105 ± 7.2 | 93.8 ± 6.4 | 83 ± 5.7
23 | CCO [ethanol] + CCCC[N+]1(C)CCCC1.O=S(=O)([N-]S(=O)(=O)C(F)(F)F)C(F)(F)F | 1.73 ± 0.12 | 1.57 ± 0.1 | 1.43 ± 0.09
